Here are results for one substance from patent US20230183753A1, “Methods of in Vitro Cell Delivery” (Intellia Therapeutics, Inc., priority 2020, published 2023).

Holding throughout (assay type): cell-based, human
Series [1] deals with interchromosomal translocations. The series is described as follows: UnIT structural variant assay (interchromosomal translocations), Example 16.B.7. Particulars: multiplex editing with 4 guides by LNP. As for the experimental part:
On day 8 post-editing a subset of T cells from the untreated, LNP-Cas9-4 guides and LNP-BC22n-4 guides samples were collected, spun down and resuspended in 100 μL of PBS. gDNA was isolated from the cells using DNeasy Blood & Tissue Kit (Qiagen Cat. 69504). The UnIT structural variant characterization assay was applied to these gDNA samples. High molecular weight genomic DNA is simultaneously fragmented and sequence-tagged (‘tagmented’) with the Tn5 transposase and an adapter with a partial Illumina P5 sequence and a 12 bp unique molecular identifier (UMI). Two sequential PCRs using a primer to P5 and hemi-nested gene specific primers (GSP) imparting the Illumina the P7 sequence to create two Illumina compatible NGS libraries per sample. Sequencing across both directions of the CRISPR/Cas9 targeted cut site with the two libraries allows the inference and quantification of structural variants in DNA repair outcomes after genome editing.

In series [2] the test system is B2M, TRAC, TRBC1/2, CIITA. Kind of series: NGS editing profile of T cells with BC22n or Cas9 mRNA, single or four guides, LNP titration, Example 16A.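 Also: activated T cells exposed to LNPs 72 h after activation, kept at 37 °C, harvested on day 10 post activation, editing measured by NGS.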 Particulars: four guides simultaneously, with trans UGI.
The test system of series [3] is B2M, CD3, MHC II. The series is described as follows: Flow cytometry of antigen negative T cells (B2M, CD3, MHC II) after BC22n or Cas9 editing, Example 16A.
Excerpt: Cells were subsequently washed, processed on a Cytoflex instrument (Beckman Coulter) and analyzed using the FlowJo software package. T cells were gated based on size, shape, viability, and antigen expression.
Series [4] relates to B2M, CD3, HLA II-DR, DP, DQ. Kind of series: Flow cytometry of surface proteins (B2M, CD3, HLA II-DR, DP, DQ) after LNP delivery, Example 16.B.6. Particulars: LNP treatment. As for the experimental part:
(§1) LNPs were formulated generally as in Example 1 with a single RNA species cargo. […] Seventy-two hours post activation, T cells were washed and suspended in OpTmizer media with cytokines without human serum. […] A control group including unedited T cells (no LNP) was also included. At 16 hours post-delivery, a subset of cells was used to measure cell viability and another subset of cells was processed for imaging of γH2AX foci. The remaining T cells continued to expand in culture. Media was changed 5 days and 8 days after activation and on the eleventh day post activation, cells were harvested for analysis by NGS, flow cytometry and UnIT. NGS was performed as in Example 1.
(§2) On day 8 post-editing, T cells were phenotyped by flow cytometry to determine B2M, CD3 and HLA II− DR, DP, DQ protein expression. Briefly, T cells were incubated in a cocktail of antibodies targeting B2M-APC/Fire™ 750 (BioLegend® Cat. No. 316314), CD3-BV605 (BioLegend® Cat. No. […]) and HLA II− DR, DP, DQ-PE (BioLegend® Cat. No. 361716). Cells were subsequently washed, processed on a Cytoflex flow cytometer (Beckman Coulter) and analyzed using the FlowJo software package. T cells were gated based on size, shape, viability, and MHC II expression. […]

Series [5] relates to B2M, TRAC, TRBC, CIITA. The series is described as follows: NGS percent editing after LNP delivery of BC22n or Cas9 with single or four guides, Example 16.B.6. Particulars: 4 guides delivered by LNP. As for the experimental part: as §1, §2

As to “BC22n: mRNA encoding editor: H. sapiens APOBEC3A fused to S. pyogenes-D10A Cas9 nickase by an XTEN linker, without UGI”, the “interchromosomal translocations / structural variation (UnIT), in words” value in series [1] is on record as “reduced to background levels”. Also, the “maximum total editing for each locus compared with Cas9, in words” value in series [2] is given as “higher percentages of maximum total editing for each locus”. The “% of cells lacking all three antigens (triple knockout: B2M, CD3, MHC II)” value in series [3] (four guides, with trans UGI, highest total RNA dose of 550 ng) worked out at 84.2%. In addition, in series [3] (samples treated with one guide only), the “R square, C to T conversions compared to antigen knockout” value is 0.93. In addition, the “triple knockout cells compared with Cas9, in words” value in series [4] is reported as “greater percentage of triple knockout cells”. Also, the “percent editing at each locus compared with Cas9, in words” value in series [5] is on record as “percent editing is higher at each locus”.
